The test system of experiment [1] is rat intact cardiomyocytes. In words: Ca2+ transients in intact cardiomyocytes. Format: cell-based. Particulars: H2O2 50 μmol/L, dantrolene 1 μmol/L, 1 Hz. Here is the method:
(§1) Intact cardiomyocytes were loaded with Fluo-4 AM (5 μmol/L, Molecular Probes) for 15 min in NT solution (in mM): NaCl 140, KCl 4, MgCl2 1, CaCl2 2, glucose 10, HEPES 5, pH 7.4. Fluo-4 AM was excited at 488 nm and emission was recorded using a 500-530 nm bandpass filter. Ca^2+sparks were recorded after field stimulation at 1 Hz, and caffeine (10mmol/L) was rapidly perfused for assessing the SR Ca^2+content. Both Ca^2+sparks and SR Ca^2+content were recorded by using a laser scanning confocal microscope (RADIANCE2000™ MP, Bio-Rad, UK). Data were analyzed using SparkMaster, an automated analysis program that allows rapid and reliable spark analysis (Picht et al., J. Am J Physiol Cell Physiol. 2007;293:C1073-C1081). Spontaneous Ca^2+waves were recorded using a BZ9000 fluorescence digital microscope (Keyence, Japan), after 10 sec from field electric stimulation at 1,2,3,4 and 5 Hz, as described previously (Fukuda et al., Biochem Biophys Res Commun. 2014;448:1-7).
(§2) Oxidation induced by hydrogen peroxide (H2O2) is expected to activate SR Ca^2+ leak through RyR2 at diastolic [Ca]i (Wagner et al., Circ Res. 2011; 108:555-65; Yan et al., Cardiovasc Res. 2008; 77:432-41). We used line-scan images to measure the effects of 50 μM/L H2O2 on Ca^2+ spark frequency (CaSpF) and SR Ca^2+ content (evaluated via rapid caffeine application) in intact cardiomyocytes after 1 Hz electric field stimulation (FIG. 25). […] Thus H2O2 may enhance diastolic RyR2 channel opening. […] So CaSpF normalized to SR Ca^2+ content, was significant increase by H2O2 treatment of myocytes (FIG. 25C).

A further experiment has as its target RyR2 (Rattus norvegicus, UniProt B0LPN4). In words: HF647-DPc10 wash-in kinetics by FRET from F-FKBP (donor quench) in permeabilized myocytes. Particulars: for effect on rate of HF647-DPc10 binding (τwash-in): H2O2 50 μmol/L pre-incubation, dantrolene 1 μmol/L in H2O2-treated myocytes. Format: binding. On the set-up: These fluorescent proteins were added to saponin-permeabilized myocytes with or without pre-equilibration with saturating DPc10 concentration; endogenous in cells; host or cells: saponin-permeabilized rat ventricular myocytes. Here is the method: The FRET pair we used in this consisted of ALEXA FLUOR™ 488 (donor) covalently attached to FKBP12.6 (F-FKBP) and HiLyte Fluor™647 (acceptor) covalently attached to DPc10 (F-DPc10).^8 To detect F-DPc10 specifically bound to RyR2, we measured donor fluorescence intensities through a 500-530 nm bandpass filter before and after equilibration with acceptor (donor quenching method). The FRET efficiency (E) was calculated according to: E=1-FDA/FD, Where FD and FDA are the fluorescence intensities of the donor-only and donor-plus-acceptor samples, respectively (Oda et al., Circ Res. 2013;112:487-497). Statistics
Next we tested whether RyR2 oxidation would increase HF647-DPc10 access. Here, we used FRET between F-FKBP as a donor and HF647-DPc10 as an acceptor, to detect DPc10 that specifically binds at RyR2 (Oda et al., Circ Res. 2013; 112:487-497).

In experiment [2] the test system is rat intact cardiomyocytes. In words: Ca2+ sparks and SR Ca2+ content in intact cardiomyocytes. Format: cell-based. To be noted: for Ca2+ spark Amplitude (ΔF/F0) / Ca2+ spark FDHM / Ca2+ spark FWHM: H2O2 50 μmol/L, dantrolene 1 μmol/L. Here is the method: as §1, §2
Experiment [3] relates to intracellular reactive oxygen species (ROS). In words: Intracellular ROS by H2DCFDA fluorescence. Format: cell-based, rat. Particulars: 50 μmol/L H2O2, with or without dantrolene pretreatment. Here is the method: Intracellular reactive oxygen species (ROS) formation was measured in rat cardiac myocytes using a fluorescent probe, 5-(and -6)-chloromethyl-2′,7′-dichlorodihydrofluoroscein diacetate (H2DCFDA, 10 μmol/L) (Terentyev et al., Circ Res. 2008; 103:1466-1472). This assay is widely used as a reliable method for the measurement of intracellular ROS such as hydrogen peroxide, hydroxyl radicals, and hydroperoxide. The H2DCFDA dye was excited with the 488 nm and emission was collected at 500-530 nm. The content of free thiols in RyR2 was determined based on the monobromobimane (mBB, Calbiochem) fluorescence intensity, as previously described (Terentyev et al., Circ Res. 2008; 103:1466-1472; Ho et al., J Physiol. 2011; 19:4697-4708). In brief, myocytes were incubated with mBB for 1 hr. Myocytes were then lysed in lysis buffer and loaded on 6% SDS-PAGE gels. The fluorescence emission intensity of the RyR2-bound mBB was measured at 482 nm by exciting at 382 nm. mBB fluorescence was normalized to the RyR2 amount, which was determined using quantitative densitometry of Coomassie Blue-stained gels.
To monitor intracellular ROS level, we used H2DCFDA (10 μmol/L). […] To assess whether dantrolene can attenuate the extent of RyR2 thiol modification in H2O2-treated myocytes, we used a monobromobimane (mBB) fluorescence labeling assay.

Experimental findings from patent US10281476B2, “Methods to identify modulators of RyR calcium channels” (REGENTS OF THE UNIVERSITY OF MINNESOTA, priority 2013, dated 2019) are described below.

Entries after “also recorded” stand apart in the source; their conditions may differ.

RyR2, sequence (B0LPN4 whole entry): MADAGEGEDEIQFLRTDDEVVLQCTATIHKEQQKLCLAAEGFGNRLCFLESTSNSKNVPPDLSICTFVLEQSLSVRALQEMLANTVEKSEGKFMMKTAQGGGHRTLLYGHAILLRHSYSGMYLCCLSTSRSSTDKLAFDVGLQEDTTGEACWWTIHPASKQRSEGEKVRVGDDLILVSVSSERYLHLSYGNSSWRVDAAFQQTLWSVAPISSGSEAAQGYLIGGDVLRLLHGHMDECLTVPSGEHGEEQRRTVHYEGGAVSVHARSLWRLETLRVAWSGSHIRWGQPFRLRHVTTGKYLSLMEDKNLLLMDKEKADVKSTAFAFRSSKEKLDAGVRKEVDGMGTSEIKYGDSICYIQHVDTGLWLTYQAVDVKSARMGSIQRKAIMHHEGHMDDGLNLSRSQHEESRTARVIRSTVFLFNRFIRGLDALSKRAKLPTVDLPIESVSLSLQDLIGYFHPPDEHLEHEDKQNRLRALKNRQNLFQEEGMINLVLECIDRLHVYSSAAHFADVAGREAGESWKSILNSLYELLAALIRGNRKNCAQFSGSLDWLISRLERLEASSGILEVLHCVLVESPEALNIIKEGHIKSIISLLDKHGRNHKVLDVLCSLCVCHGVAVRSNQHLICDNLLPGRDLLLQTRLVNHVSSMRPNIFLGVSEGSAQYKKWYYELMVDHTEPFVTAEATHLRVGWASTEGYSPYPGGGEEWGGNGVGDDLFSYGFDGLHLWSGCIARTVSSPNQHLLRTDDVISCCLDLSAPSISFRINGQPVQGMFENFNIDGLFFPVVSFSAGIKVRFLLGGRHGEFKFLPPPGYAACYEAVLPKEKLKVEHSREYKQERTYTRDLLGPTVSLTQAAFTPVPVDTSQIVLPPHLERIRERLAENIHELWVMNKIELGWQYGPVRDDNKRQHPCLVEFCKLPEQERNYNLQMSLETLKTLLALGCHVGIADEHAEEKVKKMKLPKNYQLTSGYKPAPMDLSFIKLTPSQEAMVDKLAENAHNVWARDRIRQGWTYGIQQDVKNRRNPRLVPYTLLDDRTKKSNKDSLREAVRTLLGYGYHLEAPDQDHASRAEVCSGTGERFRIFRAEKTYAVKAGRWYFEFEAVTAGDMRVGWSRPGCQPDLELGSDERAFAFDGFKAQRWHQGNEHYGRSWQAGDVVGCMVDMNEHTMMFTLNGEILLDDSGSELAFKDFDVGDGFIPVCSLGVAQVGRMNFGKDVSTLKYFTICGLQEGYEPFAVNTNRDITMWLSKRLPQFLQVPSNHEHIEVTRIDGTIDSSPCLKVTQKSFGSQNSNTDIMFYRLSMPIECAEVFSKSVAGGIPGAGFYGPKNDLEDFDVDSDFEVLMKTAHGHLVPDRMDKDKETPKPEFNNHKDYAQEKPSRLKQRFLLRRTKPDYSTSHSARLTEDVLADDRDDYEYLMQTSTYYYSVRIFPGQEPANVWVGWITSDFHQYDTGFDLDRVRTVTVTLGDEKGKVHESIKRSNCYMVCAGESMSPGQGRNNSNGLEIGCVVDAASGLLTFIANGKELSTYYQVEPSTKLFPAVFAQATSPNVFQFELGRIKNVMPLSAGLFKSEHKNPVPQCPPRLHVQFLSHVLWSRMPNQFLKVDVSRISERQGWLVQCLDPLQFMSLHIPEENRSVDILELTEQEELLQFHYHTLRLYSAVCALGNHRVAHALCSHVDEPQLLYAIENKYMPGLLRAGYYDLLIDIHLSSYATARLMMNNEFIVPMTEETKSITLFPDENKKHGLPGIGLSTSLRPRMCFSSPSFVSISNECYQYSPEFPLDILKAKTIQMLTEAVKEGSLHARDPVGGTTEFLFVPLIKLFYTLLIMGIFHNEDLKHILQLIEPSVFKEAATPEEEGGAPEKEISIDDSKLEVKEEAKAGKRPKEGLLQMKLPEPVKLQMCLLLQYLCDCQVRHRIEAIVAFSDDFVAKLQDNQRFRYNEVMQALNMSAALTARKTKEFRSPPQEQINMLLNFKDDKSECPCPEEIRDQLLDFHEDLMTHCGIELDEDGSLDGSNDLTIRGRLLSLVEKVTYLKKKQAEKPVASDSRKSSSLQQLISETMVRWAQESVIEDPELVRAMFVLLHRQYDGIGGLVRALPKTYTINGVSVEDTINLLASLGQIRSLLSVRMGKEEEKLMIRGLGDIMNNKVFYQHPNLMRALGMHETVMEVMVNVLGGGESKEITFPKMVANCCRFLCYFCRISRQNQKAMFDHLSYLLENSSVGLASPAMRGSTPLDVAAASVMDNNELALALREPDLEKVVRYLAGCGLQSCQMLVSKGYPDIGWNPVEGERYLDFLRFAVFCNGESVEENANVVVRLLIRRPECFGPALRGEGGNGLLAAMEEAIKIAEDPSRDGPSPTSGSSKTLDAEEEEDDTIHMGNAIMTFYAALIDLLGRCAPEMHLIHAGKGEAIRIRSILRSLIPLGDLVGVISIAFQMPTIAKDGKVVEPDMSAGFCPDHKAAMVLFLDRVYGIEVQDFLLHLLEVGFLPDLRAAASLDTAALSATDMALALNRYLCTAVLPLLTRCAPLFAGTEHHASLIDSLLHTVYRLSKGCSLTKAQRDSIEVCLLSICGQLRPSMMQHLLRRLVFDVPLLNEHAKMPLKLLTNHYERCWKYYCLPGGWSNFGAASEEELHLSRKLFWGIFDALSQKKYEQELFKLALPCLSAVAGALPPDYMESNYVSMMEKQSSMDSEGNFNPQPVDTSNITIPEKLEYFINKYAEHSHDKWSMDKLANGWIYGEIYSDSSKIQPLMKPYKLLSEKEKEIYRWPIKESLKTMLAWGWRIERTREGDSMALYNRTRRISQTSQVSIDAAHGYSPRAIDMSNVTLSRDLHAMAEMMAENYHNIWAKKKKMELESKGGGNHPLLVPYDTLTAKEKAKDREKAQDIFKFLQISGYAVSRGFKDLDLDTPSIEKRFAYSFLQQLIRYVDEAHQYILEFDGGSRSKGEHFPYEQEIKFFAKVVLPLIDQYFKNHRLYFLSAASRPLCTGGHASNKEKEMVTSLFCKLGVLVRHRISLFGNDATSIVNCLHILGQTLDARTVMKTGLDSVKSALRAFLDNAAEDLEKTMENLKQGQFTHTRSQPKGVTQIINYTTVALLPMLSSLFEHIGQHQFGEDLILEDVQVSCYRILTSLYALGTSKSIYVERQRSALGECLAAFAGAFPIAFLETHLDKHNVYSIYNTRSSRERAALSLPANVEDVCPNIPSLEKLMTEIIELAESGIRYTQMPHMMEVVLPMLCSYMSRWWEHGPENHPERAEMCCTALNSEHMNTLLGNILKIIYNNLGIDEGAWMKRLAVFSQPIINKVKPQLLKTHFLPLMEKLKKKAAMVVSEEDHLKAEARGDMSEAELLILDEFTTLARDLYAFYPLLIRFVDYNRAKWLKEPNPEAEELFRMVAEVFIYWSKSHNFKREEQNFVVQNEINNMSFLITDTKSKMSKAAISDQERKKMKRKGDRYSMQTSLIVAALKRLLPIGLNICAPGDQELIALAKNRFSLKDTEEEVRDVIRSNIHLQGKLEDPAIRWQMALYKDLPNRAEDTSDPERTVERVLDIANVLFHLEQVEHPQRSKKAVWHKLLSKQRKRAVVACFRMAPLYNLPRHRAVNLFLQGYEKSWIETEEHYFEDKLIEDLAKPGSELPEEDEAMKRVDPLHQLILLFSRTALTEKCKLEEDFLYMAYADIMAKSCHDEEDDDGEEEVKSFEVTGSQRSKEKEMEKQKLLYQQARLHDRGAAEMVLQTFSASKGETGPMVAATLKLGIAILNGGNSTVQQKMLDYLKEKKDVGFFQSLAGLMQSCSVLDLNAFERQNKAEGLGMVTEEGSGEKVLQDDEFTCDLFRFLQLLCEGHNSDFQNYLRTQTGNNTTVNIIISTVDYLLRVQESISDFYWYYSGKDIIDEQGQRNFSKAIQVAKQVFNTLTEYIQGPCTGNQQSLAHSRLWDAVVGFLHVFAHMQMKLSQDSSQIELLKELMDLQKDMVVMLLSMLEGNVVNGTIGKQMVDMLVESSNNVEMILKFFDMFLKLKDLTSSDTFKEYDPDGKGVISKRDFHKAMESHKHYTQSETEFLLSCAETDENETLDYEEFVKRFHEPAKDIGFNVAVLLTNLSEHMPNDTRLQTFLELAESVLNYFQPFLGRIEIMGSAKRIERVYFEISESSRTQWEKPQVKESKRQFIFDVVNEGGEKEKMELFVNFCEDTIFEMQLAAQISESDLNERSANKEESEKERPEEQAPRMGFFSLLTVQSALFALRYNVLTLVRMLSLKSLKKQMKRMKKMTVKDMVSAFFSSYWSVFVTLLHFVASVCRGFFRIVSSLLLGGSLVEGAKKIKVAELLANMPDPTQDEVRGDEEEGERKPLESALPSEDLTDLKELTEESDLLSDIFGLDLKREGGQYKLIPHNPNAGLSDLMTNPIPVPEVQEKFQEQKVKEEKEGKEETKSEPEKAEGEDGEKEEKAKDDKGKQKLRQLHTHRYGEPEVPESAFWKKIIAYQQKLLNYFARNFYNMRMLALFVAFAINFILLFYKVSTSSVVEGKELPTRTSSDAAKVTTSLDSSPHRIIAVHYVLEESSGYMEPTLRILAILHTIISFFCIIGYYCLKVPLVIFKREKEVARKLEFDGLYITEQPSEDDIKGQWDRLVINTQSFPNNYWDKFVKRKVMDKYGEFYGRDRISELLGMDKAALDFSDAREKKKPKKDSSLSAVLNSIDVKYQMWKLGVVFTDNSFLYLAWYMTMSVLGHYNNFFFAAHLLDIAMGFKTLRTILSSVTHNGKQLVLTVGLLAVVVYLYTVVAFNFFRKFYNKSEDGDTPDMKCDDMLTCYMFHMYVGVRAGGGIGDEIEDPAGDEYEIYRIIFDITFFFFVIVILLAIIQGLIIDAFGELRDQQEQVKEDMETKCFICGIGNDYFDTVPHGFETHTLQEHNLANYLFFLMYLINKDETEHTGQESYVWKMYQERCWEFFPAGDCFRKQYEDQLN
RyR2, sequence (P68106 with tags, fused parts or gaps T15C/C23A/C77I partner): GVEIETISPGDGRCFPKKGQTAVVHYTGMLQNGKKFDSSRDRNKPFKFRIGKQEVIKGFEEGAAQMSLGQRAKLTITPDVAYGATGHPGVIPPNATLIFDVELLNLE

As for `OO` [H2O2, hydrogen peroxide], in experiment [1], the “Tau [Ca]i decline” value worked out at 0.32 ± 0.01 s and the “Δ [Ca]i twitch (ΔF/F0)” value is listed as 2.56 ± 0.19 ΔF/F0. The “effect on rate of HF647-DPc10 binding (τwash-in)” value at RyR2 was “significantly accelerated”. Besides, the “faster τwash-in of F-DPc10” value on RyR2 (after H2O2 treatment) was determined as 50%. The “CaSpF compared with control” value in experiment [2] (50 μM/L H2O2, after 1 Hz stimulation) is “significantly increased”. In addition, in experiment [2], the “Ca2+ spark Amplitude (ΔF/F0)” value is recorded as 0.57 ± 0.01 ΔF/F0, the “Ca2+ spark FDHM” value is reported as 67.05 ± 3.25 ms and the “Ca2+ spark FWHM” value is on record as 2.04 ± 0.07 μm. Further, the “SR Ca2+ content” value in experiment [2] (intact myocytes) is on record as “did not significantly alter”. Also, in experiment [3], the “intracellular ROS level” value is given as “increased”.
In the case of `O=C1CN(/N=C/c2ccc(-c3ccc([N+](=O)[O-])cc3)o2)C(O)=N1` [dantrolene], in experiment [1], the “Tau [Ca]i decline” value turned out to be 0.31 ± 0.01 s and the “Δ [Ca]i twitch (ΔF/F0)” value was 2.35 ± 0.16 ΔF/F0. Moreover, the “effect on rate of HF647-DPc10 binding (τwash-in)” value on RyR2 is listed as “restored; also recorded: reversed”. For the same compound, the “effect on maximal extent of quench” value on RyR2 (dantrolene in H2O2-treated myocytes) is “reduced”. In addition, in experiment [2], the “Ca2+ spark Amplitude (ΔF/F0)” value was 0.55 ± 0.01 ΔF/F0, the “Ca2+ spark FDHM” value was 61.98 ± 3.35 ms and the “Ca2+ spark FWHM” value came out at 1.93 ± 0.09 μm. Further, in experiment [2] (dantrolene added before H2O2), the “effect on H2O2-induced increase in frequency of Ca2+ sparks” value is “suppressed”. Besides, the “effect on control myocytes (Ca2+ sparks and SCW)” value in experiment [2] (no H2O2) was “had no effect”. For the same compound, the “intracellular ROS level” value in experiment [3] was “does not alter”.
